Patent publication US20060099586A1, “Eef1a2 for use in the prognosis, diagnosis, and treatment of cancer” (priority 2002, published 2006)

Legend:
[1] = tested on: NIH 3T3 cells ectopically expressing EEF1A2; test: Drug-induced apoptosis in NIH 3T3 cells ectopically expressing EEF1A2; format: cell-based, mouse
Description: Patients with tumor samples that are positive for EEF1A2 are expected to survive for a shorter period of time as compared to patients with tumor sample negative for EEF1A2. Prognostic information relating to EEF1A2-gene amplification and/or EEF1A2 protein expression can be used to enhance clinical decision-making and to select appropriate treatment regimes. NIH 3T3 cells ectopically expressing EEF1A2 are resistant to the apoptosis-induced by cisplatin and staurosporine. Further, mice lacking EEF1A2 show increased lymphoid apoptosis. Accordingly, it is believed that EEF1A2 modulates the sensitivity of cancer cells to selected treatments.

EEF1A1 mRNA = EEF1A1 mRNA levels after antisense oligonucleotide treatment of human Ramos cells; format: cell-based
Description: (§1) Antisense inactivation of EEF1A2 was achieved using two EEF1A2-specific phosphorothioated antisense oligonucleotides. Phosphorothioated DNA oligonucleotides were used as these modified oligonucleotides are non-toxic in humans, nuclease resistant, stable in vivo and in vitro, are readily taken up by cells and activate rapid degradation of the mRNA target (Gewirtz et al. Blood 1998 92:712-736; Agrawal et al. Proc. Natl. Acad. Sci. USA 1990 87:1401-1405). However, as will be understood by those of skill in the art upon reading this disclosure, other modifications well known to those skilled in the art can be used.
(§2) Both antisense oligonucleotides decreased EEF1A2 mRNA levels in human Ramos cells. mRNA levels of EEF1A1 were not decreased by administration of these antisense oligonucleotides. A control sequence, GGTTGCTGTGGGCTTGAGT (SEQ ID NO:4) had no effect on mRNA levels of EEF1A2 or EEF1A1 in the human Ramos cells.

EEF1A2 mRNA = EEF1A2 mRNA levels after antisense oligonucleotide treatment of human Ramos cells; format: cell-based
Description: as §1, §2

Compound | apoptosis induced by the drug [1] | effect on EEF1A1 mRNA levels (EEF1A1 mRNA) | effect on EEF1A2 mRNA levels (EEF1A2 mRNA)
N.N.[Cl][Pt][Cl] [cisplatin] | resistant | – | –
CN[C@@H]1C[C@H]2O[C@@](C)([C@@H]1OC)n1c3ccccc3c3c4c(c5c6ccccc6n2c5c31)C(=O)NC4 [staurosporine] | resistant | – | –
SEQ ID NO:4: control sequence GGTTGCTGTGGGCTTGAGT (listed as DNA, chemistry not given here) | – | no effect | no effect
